{"source": "patent US20250041313A1", "about": "“COMBINATION THERAPY FOR TREATMENT OF CANCER” (CITY OF HOPE, priority 2023, published 2025)", "key": {"SBC5 cells": {"tested_on": "SBC5 cells", "test": "Imaris quantification of mitochondrial and nuclear areas/morphology", "format": "cell-based, human", "details": "SBC5, 10 μM", "method": "(§1) Imaris 9.9.0 (Bitplane, AG), with Surfaces and Cells modules, was used to generate mitochondria morphology data from 2D images and 2D Z-stack subsets. Surfaces were used to evaluate individual mitochondria from cell monolayers and spheroids. Detection parameters were optimized for visible mitochondria and nuclei in each group with varying signal intensities. Roundness ratios were calculated from Surface generated Bounding Box 00 Length measurements. Object lengths less than 0.1 μm were excluded, and lengths greater than 1.26 μm were separately analyzed as clusters. Thresholds were uniformly applied to roundness ratios to categorize mitochondria morphology as elongated (<0.599), intermediate (≥0.600-0.649), or round/fragmentated (≥0.650). The percentage of cells from total number is based on a ratio. A perfectly round object has a ratio of 1.0. The Cells module was used to detect and quantify mitochondria and nucleus area from cell monolayers. Identical parameters were applied to all groups with cell boundary detection based on mitochondria signals. Imaris includes nuclei in cytoplasm measurements, so mitochondrial area is calculated by subtracting nucleus area from cell cytoplasm area. Abnormal nuclei were excluded (<100 μm^2, >750 μm^2).\nNext, we performed the same analysis with SBC5 cells. […] Mitochondrial elongation in SBC3 cells treated with Teri and Leflu is visible and correlates with Imaris Surface results. […] Although mitochondrial areas of SBC5 cells were not affected by Teri and Leflu treatments, elongations of individual mitochondria were detected with each treatment (FIG. 2I). […] Therefore, it is important to investigate the effects of Teri and Leflu on mitochondrial morphology and cell survival in combination with chemotherapeutic drugs."}, "SBC3 cells [1]": {"tested_on": "SBC3 cells", "test": "Imaris quantification of mitochondrial and nuclear areas/morphology", "format": "cell-based, human", "details": "SBC3", "method": "as §1\nMitoTracker Red and Hoechst 33342 were used to validate Teri and Leflu effects on intact mitochondrial morphology in SBC3 and SBC5 cells. M1 and MDIVI1 compounds were used as positive controls because they are promoters of mitochondrial fusion. Mitochondrial and nuclear areas were quantified by analyzing object surface area and intensity in Imaris 9.9.0."}, "SBC3 cells [2]": {"tested_on": "SBC3 cells", "test": "LC-MS of nucleotides, nucleosides and nucleobases in cell pellets", "format": "cell-based, human", "design": "unit not given here", "method": "These studies were performed by Creative Proteomics in their facility in Shirley, NY. Each sample was placed into 250 μL of 80% methanol. Tissue samples were weighed in 2-mL Eppendorf tubes, and 80% methanol was added at 10 μL per mg of raw tissue. The tissue and cell samples were then homogenized on a MM 400 mill mixer with the aid of two 4-mm metal beads at a shaking frequency of 30 Hz for 2 min and the homogenization step was repeated twice. The samples were placed at −20° C. for 1 h and then centrifuged at 21,000×g for 10 min. The clear supernatants were collected for LC-MS quantitation. Protein content was measured from protein pellets by Bradford protein assays and used to normalize metabolite concentrations from cell pellets. A stock solution contained standard substances of all the targeted nucleotides, nucleosides, and nucleobases were prepared at 200 nmol/mL for each in an internal standard solution of ^13C- and/or ^15N-labeling AMP, ATP, GMP, GTP, UMP, UTP, adenine and adenosine. This solution was serially diluted with the same solution to prepare 10-point calibration solutions in a concentration range of 0.0001 to 50 μM. 10 μL of the supernatant of each sample was mixed with 90 μL of the internal standard solution. 10 μL aliquots of the sample solutions and the standard solutions were injected into a C18 LC column (2.1*150 mm, 1.9 μm) to run UPLC-MRM/MS on a Waters Acquity UPLC system coupled to a Sciex QTRAP 6500 Plus mass spectrometer operated in the negative-ion mode for detection of nucleotides. The mobile phase was a triethylamine buffer (A) and acetonitrile/methanol (1:1) (B) for binary gradient elution (5% to 60% B in 25 min), at 0.25 mL/min and 55° C. For quantitation of nucleosides and nucleobases, 10-μL aliquots of the sample solutions and the standard solutions were injected onto a polar reversed-phase C18 column (2.1*100 mm, 1.6 μm) to run UPLC-MRM/MS on a Waters Acquity UPLC system coupled to a Sciex QTRAP 6500 Plus mass spectrometer operated in the positive-ion mode. The mobile phase was 0.1% formic acid-ammonium formate buffer (A) and methanol (B) for binary gradient elution (0% to 40% B in 15 min), at 0.25 mL/min and 30° C. Concentrations of the detected nucleotides, nucleosides or nucleobases in the UPLC-MRM/MS runs were calculated with internal-standard calibration by interpolating the constructed linear-regression curves of individual compounds, with the analyte-to-internal standard peak area ratios measured from the sample solutions.\nThe effect of treatment on the concentration of purines and pyrimidines for both cell lines and xenograft were modelled as concentration=Treatment1+Treatment2+Treatment1*Treatment2. For cell lines, Treatment 1-2 were […] and Teri, while for the xenografts—Lur and Leflu respectively. The significance of the effects was ascertained by p-values associated with the coefficients of the model (20). The p-values were FDR corrected to account for repeated testing. The coefficient for the interaction term (Treatment1*Treatment2) and its associated p-value correspond to the synergistic effect of the two treatments. Coefficients and p-values for the rest of the terms indicate significance of each treatment alone. Statistical analysis was conducted in R."}, "SBC3 xenograft": {"tested_on": "SBC3 xenograft", "test": "SBC3 mouse xenograft, Carbo/Leflu study", "format": "in vivo", "method": "(§2) Athymic nude nu/nu mice were obtained from Charles River, Wilmington, MA, and were acclimated for a week before beginning the experiment. All animal experiments were carried out in accordance with a protocol approved by the Institutional Animal Care and Use Committee COH (IACUC #16004). For treatments, mice were divided into 4 groups with five mice per group and subcutaneously injected into one flank with 2×10^6 SBC3 or SBC5 cells suspensions in 100 μl of PBS. Treatment started on the 14th day when tumors became palpable. Two in vivo studies were done in this project. SBC3 and SBC 5 xenograft with i) vehicle control, ii) […] 50 mg/kg, iii) Leflu 7.5 mg/kg, and iv) […]/Leflu. SBC3 with i) vehicle control, ii) Lur 0.5 mg/kg, iii) Leflu 3.8 mg/kg, and iv) Lur/Leflu. Treatments were given to mice via i.p. twice a week for 6 weeks. Animals were examined daily for signs of tumor growth. Tumors were measured in two dimensions using calipers and body weights were recorded. Animals were photographed on days 1, 5, 10, 15, 20, 25, 30, 35, and 40 after treatment. Tumors were removed on day 40 and photographed. At the end of the study, the mice were euthanized by CO2 asphyxiation followed by cervical dislocation. The tumor weights were compared between groups using an unpaired Student's t-test. A portion of the tumor was fixed in 10% buffered formaldehyde solution and paraffin-embedded for immuno-staining. FFPE tumor sections were stained with pDRP Ser^616 antibody. Tumor sections were deparaffinized and rehydrated, followed by heat-mediated antigen retrieval (pH 6, Dako). After permeabilization and blocking, tumor sections were stained with pDRP1 Ser^616 antibody overnight, washed and incubated with Alexa 488 secondary antibody for one hour, mounted and observed on an LSM 880 with a 10×/0.45 NA objective (Carl Zeiss). Immunofluorescent confocal images were acquired for each treatment (magnification:100×). Mean immunofluorescence intensities were calculated with ZEN 2.3 Lite software."}, "SBC5 xenograft": {"tested_on": "SBC5 xenograft", "test": "SBC5 mouse xenograft, Carbo/Leflu study", "format": "in vivo", "details": "Carbo 50 mg/kg, Leflu 7.5 mg/kg, i.p. twice a week", "method": "as §2, with “A portion of the tumor was fixed in 10% buffered formaldehyde solution and paraffin-embedded for immuno-staining. FFPE tumor sections were stained with pDRP Ser^616 antibody. Tumor sections were deparaffinized and rehydrated, followed by heat-mediated antigen retrieval (pH 6, Dako). After permeabilization and blocking, tumor sections were stained with pDRP1 Ser^616 antibody overnight, washed and incubated with Alexa 488 secondary antibody for one hour, mounted and observed on an LSM 880 with a 10×/0.45 NA objective (Carl Zeiss). Immunofluorescent confocal images were acquired for each treatment (magnification:100×).” left out"}, "SBC3 cells [3]": {"tested_on": "SBC3 cells", "test": "CCK-8 cell viability/cytotoxicity assay, 72 h", "format": "cell-based, human", "details": "SBC3, CCK-8 72 h, fixed concentrations of Teri and Carbo; read-out: IC50, single treatment and combination treatment", "method": "The expression levels of DRP1 and DHODH in SCLC lines were compared with non-malignant BEAS 2B cells. […] Previous studies have shown that Leflu and its active metabolite Teri regulate mitochondrial morphology (9,10,26). […] In vitro cytotoxicity effect of Teri and Leflu was tested in a panel of SCLC cell lines. Ten SCLC cell lines were treated with increasing concentrations of each drug for 72 h.\nIsobologram and CI50 values were calculated using the Chou-Talalay method and IC50 to find synergism (FIG. 3B)."}, "SCLC": {"tested_on": "SCLC", "details": "relapsed / second-line SCLC patients; cited from earlier work"}}}
{"compound": "COc1cc(-n2c(=S)[nH]c3ccccc3c2=O)c(Cl)cc1Cl", "note": "[MDIVI1]", "values": [{"measurement": "Mitochondrial area", "setting": "SBC5 cells", "result": "419.9±13.26", "unit": "μm^2"}, {"measurement": "Mitochondrial elongation (Airyscan imaging)", "setting": "SBC3 cells [1]", "result": "moderately affected"}, {"measurement": "effect on mitochondrial or nuclear areas", "setting": "SBC3 cells [1]", "result": "did not affect"}]}
{"compound": "CC(=NNc1c(Cl)cc(Cl)cc1Cl)c1cc(Cl)ccc1O", "note": "[M1]", "values": [{"measurement": "Mitochondrial elongation (Airyscan imaging)", "setting": "SBC3 cells [1]", "result": "moderately affected"}, {"measurement": "effect on mitochondrial or nuclear areas", "setting": "SBC3 cells [1]", "result": "did not affect"}]}
{"compound": "carboplatin", "values": [{"measurement": "ATP concentration", "setting": "SBC3 cells [2]", "result": "27.92±0.55"}, {"measurement": "UTP concentration", "setting": "SBC3 cells [2]", "result": "9.29±0.4"}, {"measurement": "XMP concentration", "setting": "SBC3 cells [2]", "result": "0.35±0.18"}, {"measurement": "dATP concentration", "setting": "SBC3 cells [2]", "result": "0.17±0.002"}, {"measurement": "dCTP concentration", "setting": "SBC3 cells [2]", "result": "0.06±0.004"}, {"measurement": "dm5UTP concentration", "setting": "SBC3 cells [2]", "result": "0.44±0.001"}, {"measurement": "xanthosine concentration", "setting": "SBC3 cells [2]", "result": "0.094±0.045"}, {"measurement": "pDRP1 Ser616 immunofluorescence in tumor sections", "setting": "SBC3 xenograft; SBC3 xenograft FFPE tumors", "result": "significant decrease"}, {"measurement": "reduction in tumor size/weight", "setting": "SBC3 xenograft; SBC3 xenograft, day 40, vs control", "result": "~58", "unit": "%"}, {"measurement": "average final tumor weight at end of study (day 40)", "setting": "SBC3 xenograft; SBC3 xenograft, Carbo 50 mg/kg, Leflu 7.5 mg/kg, i.p. twice a week", "result": "0.75 ± 0.10", "unit": "g"}, {"measurement": "final tumor weight (day 40)", "setting": "SBC5 xenograft", "result": "0.64 ± 0.10", "unit": "g"}, {"measurement": "IC50", "setting": "SBC3 cells [3]", "result": 4.12, "unit": "µM"}]}
{"compound": "CC[C@@]1(O)C(=O)OCc2c1cc1n(c2=O)Cc2cc3c(CN(C)C)c(O)ccc3nc2-1", "note": "[topotecan, Topotecan]", "values": [{"measurement": "ORR", "setting": "SCLC", "result": 24, "unit": "%"}, {"measurement": "median PFS", "setting": "SCLC", "result": 3.4, "unit": "months"}]}
